This is an account of results in ChEMBL document CHEMBL5442219.

Common to all, as to conditions: Compound concentration 10 µM
The target of test [1] is T1, Alpha-2A adrenergic receptor (Homo sapiens) (UniProt P08913).
T1 sequence (whole entry): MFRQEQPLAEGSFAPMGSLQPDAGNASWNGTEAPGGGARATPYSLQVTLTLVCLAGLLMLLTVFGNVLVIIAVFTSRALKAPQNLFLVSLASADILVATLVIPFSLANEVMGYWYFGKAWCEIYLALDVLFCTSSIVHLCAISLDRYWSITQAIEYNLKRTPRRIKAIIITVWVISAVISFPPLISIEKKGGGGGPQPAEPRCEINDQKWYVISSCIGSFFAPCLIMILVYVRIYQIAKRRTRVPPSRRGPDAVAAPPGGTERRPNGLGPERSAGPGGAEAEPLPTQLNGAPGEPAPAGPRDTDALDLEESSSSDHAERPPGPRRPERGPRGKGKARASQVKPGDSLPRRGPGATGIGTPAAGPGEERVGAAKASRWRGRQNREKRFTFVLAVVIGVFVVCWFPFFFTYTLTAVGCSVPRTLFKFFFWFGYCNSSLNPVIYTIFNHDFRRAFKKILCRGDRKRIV

Test [2] has as its target T2, Alpha-2B adrenergic receptor (Homo sapiens) (UniProt P18089).
T2 sequence (whole entry): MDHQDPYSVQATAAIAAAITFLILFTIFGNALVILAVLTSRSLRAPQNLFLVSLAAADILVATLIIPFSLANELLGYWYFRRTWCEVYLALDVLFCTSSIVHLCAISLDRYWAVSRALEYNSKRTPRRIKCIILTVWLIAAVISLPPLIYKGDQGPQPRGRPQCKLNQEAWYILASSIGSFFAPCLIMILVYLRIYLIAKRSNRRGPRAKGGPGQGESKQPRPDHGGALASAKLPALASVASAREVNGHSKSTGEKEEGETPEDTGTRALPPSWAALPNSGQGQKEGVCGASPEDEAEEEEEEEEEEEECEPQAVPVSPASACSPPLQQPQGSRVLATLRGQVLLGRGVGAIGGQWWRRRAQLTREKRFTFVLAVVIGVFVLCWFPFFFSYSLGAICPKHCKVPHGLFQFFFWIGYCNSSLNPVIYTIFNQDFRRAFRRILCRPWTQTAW

Test [3] has as its target T3, Alpha-2C adrenergic receptor (Homo sapiens) (UniProt P18825).
T3 sequence (whole entry): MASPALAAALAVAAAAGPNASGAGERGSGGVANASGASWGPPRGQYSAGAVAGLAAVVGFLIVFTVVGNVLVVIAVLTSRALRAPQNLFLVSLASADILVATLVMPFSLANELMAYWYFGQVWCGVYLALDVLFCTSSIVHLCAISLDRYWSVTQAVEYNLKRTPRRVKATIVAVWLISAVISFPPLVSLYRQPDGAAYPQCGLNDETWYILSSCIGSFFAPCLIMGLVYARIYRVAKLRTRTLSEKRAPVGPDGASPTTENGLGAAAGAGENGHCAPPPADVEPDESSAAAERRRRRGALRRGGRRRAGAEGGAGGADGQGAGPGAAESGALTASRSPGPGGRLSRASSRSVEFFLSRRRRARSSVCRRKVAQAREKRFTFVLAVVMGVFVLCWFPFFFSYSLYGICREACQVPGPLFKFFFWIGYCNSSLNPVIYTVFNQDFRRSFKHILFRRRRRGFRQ

For test [4], the target named is Beta-2 adrenergic receptor (Homo sapiens) (UniProt P07550).
Beta-2 adrenergic receptor (Homo sapiens), sequence (P07550 whole entry, looked up): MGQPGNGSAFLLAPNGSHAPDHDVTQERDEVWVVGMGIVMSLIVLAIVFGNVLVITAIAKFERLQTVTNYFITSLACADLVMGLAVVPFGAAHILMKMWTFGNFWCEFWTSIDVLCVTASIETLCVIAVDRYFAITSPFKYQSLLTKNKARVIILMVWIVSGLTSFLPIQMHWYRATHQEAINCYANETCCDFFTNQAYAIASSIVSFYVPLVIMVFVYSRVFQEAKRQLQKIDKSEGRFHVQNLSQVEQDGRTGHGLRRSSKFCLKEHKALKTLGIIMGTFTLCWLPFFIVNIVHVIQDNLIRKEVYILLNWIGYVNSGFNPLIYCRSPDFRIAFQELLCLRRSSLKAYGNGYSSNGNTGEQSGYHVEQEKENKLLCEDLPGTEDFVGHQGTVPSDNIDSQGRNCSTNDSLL
In test [5] the target is T4, Muscarinic acetylcholine receptor M1 (Homo sapiens) (UniProt P11229).
T4 sequence (whole entry): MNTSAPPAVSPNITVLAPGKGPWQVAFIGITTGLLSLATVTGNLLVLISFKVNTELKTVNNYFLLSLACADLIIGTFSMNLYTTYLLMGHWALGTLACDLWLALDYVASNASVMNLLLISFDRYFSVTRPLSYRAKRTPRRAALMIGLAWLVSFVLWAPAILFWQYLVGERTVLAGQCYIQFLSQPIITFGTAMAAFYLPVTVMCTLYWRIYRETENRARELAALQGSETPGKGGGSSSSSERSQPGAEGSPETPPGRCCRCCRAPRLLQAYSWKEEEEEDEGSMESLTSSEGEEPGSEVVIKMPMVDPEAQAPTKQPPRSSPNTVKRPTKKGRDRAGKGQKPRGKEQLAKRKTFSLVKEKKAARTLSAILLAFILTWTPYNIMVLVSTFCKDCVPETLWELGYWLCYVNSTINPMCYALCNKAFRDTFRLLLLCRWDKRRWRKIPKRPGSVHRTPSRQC

The target of test [6] is D(2) dopamine receptor (Homo sapiens) (UniProt P14416).
D(2) dopamine receptor (Homo sapiens), sequence (P14416 whole entry): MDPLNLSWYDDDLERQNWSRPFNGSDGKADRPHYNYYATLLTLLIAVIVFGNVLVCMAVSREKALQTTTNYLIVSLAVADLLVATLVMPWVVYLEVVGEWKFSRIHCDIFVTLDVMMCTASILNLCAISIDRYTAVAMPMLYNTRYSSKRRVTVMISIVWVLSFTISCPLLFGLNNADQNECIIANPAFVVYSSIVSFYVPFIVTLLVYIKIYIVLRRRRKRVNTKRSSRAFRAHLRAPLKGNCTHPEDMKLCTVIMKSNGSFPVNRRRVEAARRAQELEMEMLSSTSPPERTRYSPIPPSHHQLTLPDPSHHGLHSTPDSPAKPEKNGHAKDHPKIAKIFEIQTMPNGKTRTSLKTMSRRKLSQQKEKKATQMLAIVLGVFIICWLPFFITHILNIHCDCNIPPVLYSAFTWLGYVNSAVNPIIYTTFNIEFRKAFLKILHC
Test [7] has as its target T5, D(4) dopamine receptor (Homo sapiens) (UniProt P21917).
T5 sequence (whole entry): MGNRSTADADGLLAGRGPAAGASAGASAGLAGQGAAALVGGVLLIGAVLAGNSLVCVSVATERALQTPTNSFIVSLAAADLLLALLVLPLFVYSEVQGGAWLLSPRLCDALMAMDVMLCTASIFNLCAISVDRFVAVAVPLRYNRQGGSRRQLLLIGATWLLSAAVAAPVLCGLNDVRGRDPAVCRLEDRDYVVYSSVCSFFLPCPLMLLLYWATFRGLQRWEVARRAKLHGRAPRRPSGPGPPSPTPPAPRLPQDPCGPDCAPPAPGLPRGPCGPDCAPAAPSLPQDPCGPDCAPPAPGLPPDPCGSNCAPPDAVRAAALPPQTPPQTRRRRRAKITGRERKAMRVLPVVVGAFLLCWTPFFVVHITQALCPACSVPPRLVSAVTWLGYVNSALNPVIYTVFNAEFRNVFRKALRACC

Test [8] has as its target Histamine H1 receptor (Homo sapiens) (UniProt P35367).
In test [9] the target is Histamine H3 receptor (Homo sapiens) (UniProt Q9Y5N1).
Histamine H3 receptor (Homo sapiens), sequence (Q9Y5N1 whole entry): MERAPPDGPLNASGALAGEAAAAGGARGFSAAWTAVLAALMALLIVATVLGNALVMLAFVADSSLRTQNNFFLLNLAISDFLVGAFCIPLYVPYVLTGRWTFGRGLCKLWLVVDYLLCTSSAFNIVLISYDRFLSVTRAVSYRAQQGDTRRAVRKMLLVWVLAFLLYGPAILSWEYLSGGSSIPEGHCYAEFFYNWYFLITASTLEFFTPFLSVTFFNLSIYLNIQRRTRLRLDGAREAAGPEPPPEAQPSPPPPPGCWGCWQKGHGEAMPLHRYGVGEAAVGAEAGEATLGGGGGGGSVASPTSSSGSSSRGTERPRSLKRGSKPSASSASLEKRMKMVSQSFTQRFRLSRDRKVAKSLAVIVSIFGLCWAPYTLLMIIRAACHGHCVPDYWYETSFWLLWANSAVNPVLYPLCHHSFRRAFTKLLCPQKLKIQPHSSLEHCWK
For test [10], the target named is Histamine H4 receptor (Homo sapiens) (UniProt Q9H3N8).
The target in test [11] is 5-hydroxytryptamine receptor 1B (Homo sapiens) (UniProt P28222).
5-hydroxytryptamine receptor 1B (Homo sapiens), sequence (P28222 whole entry): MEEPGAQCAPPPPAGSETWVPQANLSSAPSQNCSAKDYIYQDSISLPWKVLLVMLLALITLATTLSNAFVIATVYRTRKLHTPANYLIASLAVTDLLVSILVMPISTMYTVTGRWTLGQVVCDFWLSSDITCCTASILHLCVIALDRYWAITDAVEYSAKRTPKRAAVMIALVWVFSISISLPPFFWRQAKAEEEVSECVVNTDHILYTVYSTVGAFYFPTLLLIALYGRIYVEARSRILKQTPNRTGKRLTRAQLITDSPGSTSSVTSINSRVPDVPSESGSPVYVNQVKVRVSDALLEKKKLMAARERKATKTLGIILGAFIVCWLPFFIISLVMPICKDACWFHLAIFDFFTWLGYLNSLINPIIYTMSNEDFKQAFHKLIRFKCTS
In test [12] the target is 5-hydroxytryptamine receptor 1D (Homo sapiens) (UniProt P28221).
For test [13], the target named is 5-hydroxytryptamine receptor 1E (Homo sapiens) (UniProt P28566).
The target in test [14] is 5-hydroxytryptamine receptor 2B (Homo sapiens) (UniProt P41595).
5-hydroxytryptamine receptor 2B (Homo sapiens), sequence (P41595 whole entry): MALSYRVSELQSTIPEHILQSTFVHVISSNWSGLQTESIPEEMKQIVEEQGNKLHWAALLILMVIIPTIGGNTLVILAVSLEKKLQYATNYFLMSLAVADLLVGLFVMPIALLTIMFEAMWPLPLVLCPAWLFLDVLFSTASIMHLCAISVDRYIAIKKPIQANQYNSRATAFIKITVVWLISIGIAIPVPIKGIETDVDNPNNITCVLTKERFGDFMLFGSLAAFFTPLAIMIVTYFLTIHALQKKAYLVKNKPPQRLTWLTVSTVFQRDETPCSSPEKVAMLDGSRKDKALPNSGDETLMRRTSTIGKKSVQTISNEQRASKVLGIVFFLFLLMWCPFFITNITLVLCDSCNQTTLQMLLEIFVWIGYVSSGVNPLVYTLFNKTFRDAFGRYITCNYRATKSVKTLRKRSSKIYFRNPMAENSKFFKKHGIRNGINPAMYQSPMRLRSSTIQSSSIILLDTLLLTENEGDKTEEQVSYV
Test [15] has as its target 5-hydroxytryptamine receptor 7 (Homo sapiens) (UniProt P34969).
Test [16] concerns the target Kappa-type opioid receptor (Homo sapiens) (UniProt P41145).
Test [17] has as its target Mu-type opioid receptor (Homo sapiens) (UniProt P35372).
The target in test [18] is Sigma non-opioid intracellular receptor 1 (Homo sapiens) (UniProt Q99720).
Sigma non-opioid intracellular receptor 1 (Homo sapiens), sequence (Q99720 whole entry): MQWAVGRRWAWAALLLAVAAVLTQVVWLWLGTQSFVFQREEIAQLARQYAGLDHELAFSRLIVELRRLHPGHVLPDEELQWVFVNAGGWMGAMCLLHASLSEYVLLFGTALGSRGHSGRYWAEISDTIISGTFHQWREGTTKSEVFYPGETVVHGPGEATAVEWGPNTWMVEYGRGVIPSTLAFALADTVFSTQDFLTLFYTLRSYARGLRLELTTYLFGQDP
The target of test [19] is Sodium-dependent dopamine transporter (Homo sapiens) (UniProt Q01959).
Sodium-dependent dopamine transporter (Homo sapiens), sequence (Q01959 whole entry): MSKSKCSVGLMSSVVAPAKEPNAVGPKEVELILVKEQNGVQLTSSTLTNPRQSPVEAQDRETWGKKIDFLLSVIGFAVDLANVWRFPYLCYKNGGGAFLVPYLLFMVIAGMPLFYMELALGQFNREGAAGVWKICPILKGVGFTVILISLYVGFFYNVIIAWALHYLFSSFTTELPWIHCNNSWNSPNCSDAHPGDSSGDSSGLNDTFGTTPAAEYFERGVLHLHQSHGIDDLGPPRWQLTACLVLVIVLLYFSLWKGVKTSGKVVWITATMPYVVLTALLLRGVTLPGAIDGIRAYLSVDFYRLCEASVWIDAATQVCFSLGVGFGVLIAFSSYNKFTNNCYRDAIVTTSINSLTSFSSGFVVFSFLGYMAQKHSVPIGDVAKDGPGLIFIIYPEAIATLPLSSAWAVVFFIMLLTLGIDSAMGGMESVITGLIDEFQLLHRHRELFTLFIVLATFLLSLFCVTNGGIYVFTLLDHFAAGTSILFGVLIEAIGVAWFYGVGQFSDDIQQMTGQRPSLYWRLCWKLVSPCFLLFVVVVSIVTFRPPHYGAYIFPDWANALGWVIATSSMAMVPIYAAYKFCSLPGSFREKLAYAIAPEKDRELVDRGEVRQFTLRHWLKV
Test [20] concerns the target Sigma intracellular receptor 2 (Homo sapiens) (UniProt Q5BJF2).
The target of test [21] is Translocator protein (Homo sapiens) (UniProt P30536).
Translocator protein (Homo sapiens), sequence (P30536 whole entry): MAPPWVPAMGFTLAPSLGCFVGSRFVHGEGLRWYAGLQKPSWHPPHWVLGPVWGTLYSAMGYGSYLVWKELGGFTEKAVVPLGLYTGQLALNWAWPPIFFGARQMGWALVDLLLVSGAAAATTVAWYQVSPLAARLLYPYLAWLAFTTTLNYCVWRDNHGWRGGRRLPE
Test [22] concerns the target T6, Muscarinic acetylcholine receptor M4 (Homo sapiens) (UniProt P08173).
T6 sequence (whole entry): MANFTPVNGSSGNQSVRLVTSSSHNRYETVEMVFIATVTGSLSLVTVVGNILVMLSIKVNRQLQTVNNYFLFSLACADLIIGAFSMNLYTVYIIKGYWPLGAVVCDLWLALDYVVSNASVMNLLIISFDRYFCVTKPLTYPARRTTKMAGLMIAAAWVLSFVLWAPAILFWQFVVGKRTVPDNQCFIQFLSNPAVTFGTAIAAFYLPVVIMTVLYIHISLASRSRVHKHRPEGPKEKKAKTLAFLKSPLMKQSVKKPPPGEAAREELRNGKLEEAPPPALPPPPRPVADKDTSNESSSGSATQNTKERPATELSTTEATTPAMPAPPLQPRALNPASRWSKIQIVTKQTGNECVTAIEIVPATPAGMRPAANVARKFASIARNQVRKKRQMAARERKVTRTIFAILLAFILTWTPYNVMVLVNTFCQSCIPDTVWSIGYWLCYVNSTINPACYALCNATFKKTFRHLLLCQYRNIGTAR

In test [23] the target is D(1A) dopamine receptor (Homo sapiens) (UniProt P21728).
Test [24] addresses D(3) dopamine receptor (Homo sapiens) (UniProt P35462).
Test [25] has as its target T7, 5-hydroxytryptamine receptor 1A (Homo sapiens) (UniProt P08908).
T7 sequence (whole entry): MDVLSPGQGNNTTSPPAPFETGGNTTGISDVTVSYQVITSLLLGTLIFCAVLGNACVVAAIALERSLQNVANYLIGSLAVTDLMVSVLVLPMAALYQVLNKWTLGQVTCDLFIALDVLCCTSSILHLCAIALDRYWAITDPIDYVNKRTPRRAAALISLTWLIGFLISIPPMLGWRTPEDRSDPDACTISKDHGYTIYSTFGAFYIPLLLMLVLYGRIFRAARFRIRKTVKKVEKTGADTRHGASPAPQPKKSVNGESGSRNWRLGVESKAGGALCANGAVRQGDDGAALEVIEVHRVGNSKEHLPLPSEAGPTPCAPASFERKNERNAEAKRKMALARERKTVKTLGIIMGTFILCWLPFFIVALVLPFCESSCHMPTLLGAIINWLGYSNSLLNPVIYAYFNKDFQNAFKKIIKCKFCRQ

The target of test [26] is 5-hydroxytryptamine receptor 2A (Homo sapiens) (UniProt P28223).
The target of test [27] is T8, 5-hydroxytryptamine receptor 3A (Homo sapiens) (UniProt P46098).
T8 sequence (whole entry): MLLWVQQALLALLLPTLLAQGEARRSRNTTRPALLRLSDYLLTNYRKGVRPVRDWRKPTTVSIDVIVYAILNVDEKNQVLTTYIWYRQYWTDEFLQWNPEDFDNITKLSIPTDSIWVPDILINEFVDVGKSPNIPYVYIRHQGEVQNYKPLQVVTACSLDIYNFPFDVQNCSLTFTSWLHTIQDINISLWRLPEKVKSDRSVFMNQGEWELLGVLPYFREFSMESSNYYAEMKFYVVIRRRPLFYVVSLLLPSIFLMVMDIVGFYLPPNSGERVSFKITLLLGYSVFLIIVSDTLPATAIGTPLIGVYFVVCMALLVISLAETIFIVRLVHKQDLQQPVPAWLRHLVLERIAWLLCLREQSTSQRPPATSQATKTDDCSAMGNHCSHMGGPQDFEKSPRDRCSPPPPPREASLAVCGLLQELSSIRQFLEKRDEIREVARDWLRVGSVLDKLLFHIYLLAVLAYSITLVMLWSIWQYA

The target in test [28] is Sodium-dependent serotonin transporter (Homo sapiens) (UniProt P31645).
For test [29], the target named is Beta-3 adrenergic receptor (Homo sapiens) (UniProt P13945).
For test [30], the target named is Histamine H2 receptor (Homo sapiens) (UniProt P25021).

Sigma intracellular receptor 2 (Homo sapiens), sequence (Q5BJF2 whole entry): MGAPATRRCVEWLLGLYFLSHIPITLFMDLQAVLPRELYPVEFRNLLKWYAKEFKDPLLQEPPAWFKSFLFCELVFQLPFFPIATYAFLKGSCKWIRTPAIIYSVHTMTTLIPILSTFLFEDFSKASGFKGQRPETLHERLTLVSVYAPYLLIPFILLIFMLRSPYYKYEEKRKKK
5-hydroxytryptamine receptor 7 (Homo sapiens), sequence (P34969 whole entry): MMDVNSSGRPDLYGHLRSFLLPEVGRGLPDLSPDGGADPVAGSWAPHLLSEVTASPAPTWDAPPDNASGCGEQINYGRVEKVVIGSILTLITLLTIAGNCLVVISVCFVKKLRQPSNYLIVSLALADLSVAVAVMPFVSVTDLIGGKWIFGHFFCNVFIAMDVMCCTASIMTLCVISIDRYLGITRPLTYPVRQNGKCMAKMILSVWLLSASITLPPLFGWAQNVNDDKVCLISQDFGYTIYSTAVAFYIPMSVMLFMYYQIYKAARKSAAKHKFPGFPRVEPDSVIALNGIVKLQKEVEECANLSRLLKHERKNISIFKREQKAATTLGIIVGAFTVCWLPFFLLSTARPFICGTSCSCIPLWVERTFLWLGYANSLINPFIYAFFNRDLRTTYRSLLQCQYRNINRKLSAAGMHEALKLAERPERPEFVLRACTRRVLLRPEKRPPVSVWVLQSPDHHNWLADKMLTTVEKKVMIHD
Kappa-type opioid receptor (Homo sapiens), sequence (P41145 whole entry): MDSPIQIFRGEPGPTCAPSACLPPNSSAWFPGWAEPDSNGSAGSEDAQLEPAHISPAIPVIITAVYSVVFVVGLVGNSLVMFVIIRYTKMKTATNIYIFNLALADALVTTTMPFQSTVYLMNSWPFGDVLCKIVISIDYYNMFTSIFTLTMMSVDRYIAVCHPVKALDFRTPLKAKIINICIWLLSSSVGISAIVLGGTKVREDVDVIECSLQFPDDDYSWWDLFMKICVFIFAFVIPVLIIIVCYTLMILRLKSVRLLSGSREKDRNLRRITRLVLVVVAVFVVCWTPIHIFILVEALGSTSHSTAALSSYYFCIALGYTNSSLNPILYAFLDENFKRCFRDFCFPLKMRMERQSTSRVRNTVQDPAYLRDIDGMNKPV
Histamine H1 receptor (Homo sapiens), sequence (P35367 whole entry): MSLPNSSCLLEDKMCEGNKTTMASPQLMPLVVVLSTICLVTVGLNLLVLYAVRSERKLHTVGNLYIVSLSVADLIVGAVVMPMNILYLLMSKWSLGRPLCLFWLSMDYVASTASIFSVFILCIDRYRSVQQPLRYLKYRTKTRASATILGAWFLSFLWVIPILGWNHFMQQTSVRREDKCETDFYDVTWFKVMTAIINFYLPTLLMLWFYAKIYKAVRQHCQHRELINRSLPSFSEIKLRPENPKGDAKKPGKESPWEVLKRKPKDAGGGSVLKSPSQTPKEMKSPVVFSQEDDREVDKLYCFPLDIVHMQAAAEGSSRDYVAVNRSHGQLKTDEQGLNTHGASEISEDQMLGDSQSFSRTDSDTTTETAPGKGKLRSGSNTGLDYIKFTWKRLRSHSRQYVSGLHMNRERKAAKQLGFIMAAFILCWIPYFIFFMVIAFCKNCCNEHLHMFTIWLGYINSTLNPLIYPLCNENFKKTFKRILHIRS

With `O=C(O)c1n[nH]c2c1C[C@H]1C[C@@H]21`, the inhibition (in general, the relative decrease from the control value, in per cent) in test [1] is 8.74%; in test [2], 3.24%; in [3], 1.98%; in [4], 3.75%; in test [5], -7.24%; in test [6], -9.71%. The inhibition in [7] is -4.86%; in test [8], -7.37%; in test [9], -7.4%; in [10], 10%; in test [11], 13%; in [12], 17.2%. Besides, the inhibition is 5.8% in [13]; 15.1% in [14]; -5.09% in [15]; -6.22% in [16]; -4.24% in [17]; 14.3% in test [18]. For the same compound, the inhibition was 1.37% in test [19], 11.9% in test [20] and 4.46% in test [21].

`Cc1c(C(=O)NC2CCCCC2)sc2nc3ccc(N)cc3n12`: the inhibition in test [1] was -6.44%; in [4], 5.51%; in test [22] it was -5.41%; in test [23] it was 7.6%; in test [6], -1.44%; in test [24], 36.7%. In addition, the inhibition is 38.1% in test [7]; 11.7% in test [8]; 4.62% in test [9]; 1.51% in test [10]; 33.1% in test [25]; 27.8% in [11]. Moreover, the inhibition in test [13] was 5.97%; in test [26], 10.5%; in test [14] it was 53.3%; in test [27] it was -6.74%; in test [15], 6.55%; in test [16], 17.5%. The inhibition in test [17] was 8.54%; in test [18], 62.8%; in [19], 17.7%; in [28] it was 7.26%; in test [20] it was 10.3%; in test [21] it was -2.67%. Besides, the figures for the inhibition in test [29] and in test [30] were -9.6% and 21.4%, respectively.
